Reference: patent US9861606B2, “Therapeutic for treating inflammatory lung disorders” (University College Cardiff Consultants Limited, priority 2012, dated 2018)

Legend:
[1] = tested on: BalbC mice; assay: Inflammatory cell infiltration in BALF of OVA-sensitised mice; assay type: in vivo, mouse; details: nebulised 3 micromolar
Protocol: FIG. 14. The calcilytic NPS89636 reduces inflammatory cell infiltration detected in the bronchioalveolar lavage fluid (BALF) from mice sensitized with OVA. 24 hours following the OVA sensitisation and nebulisation protocol described in detail in FIG. 13 in the presence of NS89636 (3 micromolar) or vehicle (0.3% DMSO), mice were killed and the BALF was collected by lavage. Cells from BALF were counted the same day using a haematocytometer. For differential cell count, BALF was concentrated by centrifugation 10 times, 100 microliters of the final solution was applied to a Cytospin 3 Shandon cell smearing system. The slides then were submerged into 1.5% Leisman stain in methanol for 6 min, then briefly washed in water twice, allowed to dry overnight, and the cells counted using 100× oil immersion objective. Data are presented as mean±S.E.M. Significant differences between vehicle and calcilytic are indicated, p<0.05, n=11.
Effect of the Calcilytic NPS 89636 on Inflammatory Cell Infiltration in the BALF of OVA-Sensitised Mice and LPS-Treated Guinea Pigs.
For the asthma model, OVA-sensitized mice were killed by a lethal overdose of sodium pentobarbitone (Euthatal), then using a cannula 1 ml of PBS was instilled into the lungs via an incision in the trachea. […]

[2] = tested on: BalbC mice; assay: Bronchial hyper-reactivity in ovalbumin-sensitised, ovalbumin-challenged mouse model of asthma; assay type: in vivo; details: nebulised 3 μM; methacholine up to and including 30 mg/ml
Protocol: FIG. 13. The calcilytic, NPS89636, prevents ovalbumin-induced BHR in methacholine challenged mice. Mice were sensitised on days 0 and 5 by an i.p. injection of 100 microgram/mouse of ovalbumin (OVA) and 50 mg/mouse aluminium hydroxide in PBS. Fourteen days after the last injection, mice were challenged by inhalation of a 0.5% OVA aerosol in PBS twice on the same day, 4 h apart. Mice were treated with nebulised NPS89636 (3 micromolar) or vehicle (0.3% DMSO) one hour before and three hours after the last OVA exposure. Measurements of BHR following methacholine challenge were taken by plethysmography 24 hours before and after the last OVA inhalation challenge.
Penh was recorded by plethysmography during methacholine challenge, as above (Penh before treatment). 24 hours later, the mice were challenged with 0.5% nebulised OVA (in PBS w/v) in the absence or presence of nebulised NPS89636 (or 0.3% DMSO vehicle) by inhalation. The time-course of this challenge protocol consisted of: […]
Male BalbC mice (˜25 g) purchased from Harlan and allowed to acclimatise for 1 week prior to experiment. […] Thirteen days after the last injection, Penh was recorded by plethysmography during methacholine challenge, as described above (Penh before treatment). […]
Bronchoalveolar lavage was performed using three times 1 ml of PBS and the BALF was collected for the quantification of inflammatory cells. […]

CCc1ccc(CC(C)(C)NCC(O)COc2cc(-c3ccc(C(=O)O)cc3)ccc2C#N)c(F)c1.Cl (stereo in doubt) [NPS89636, (S)-4′-cyano-3′-[3-[2-(4-ethyl-2-fluorophenyl)-1,1-dimethylethylamino]-2-hydroxy-propoxy]-biphenyl-4-carboxylic acid hydrochloride]
Effect on OVA-evoked inflammatory cell infiltration into the lung (BALF) [1]: reduced | Effect on methacholine-induced BHR in OVA-sensitised, OVA-challenged mice [2]: completely abolished
